We go through 2 compounds from patent publication US20160083643A1, “ENHANCED OIL RECOVERY METHOD EMPLOYING A BIODEGRADABLE BRINE TOLERANT FOAM-FORMING COMPOSITION” (DOW GLOBAL TECHNOLOGIES LLC, priority 2013, published 2016).

One test relates to Daphna magna. The experiment in a line: 48-hour acute toxicity to Daphna magna. It counts as in vivo. The settings on record: isolated, purified component from Example 3.
For another test, the system named is Desmondesmus subspicatus. Put plainly: Fresh water algal growth inhibition test (OECD 201). It counts as cell-based. The note with it: isolated, purified component from Example 3; read-out: Fresh Water algal growth inhibition test with Desmondesmus subspicatus ErC50/0-3. The source says:
Aquatic Toxicity procedures and test methods are based on the recommendations of the following guidelines: Organization for Economic Cooperation and Development (OECD): OECD Guidelines for the Testing of Chemicals, “Freshwater Alga and Cyanobacteria, Growth Inhibition Test”, Procedure 201, adopted 23 Mar. 2006; European Economic Community (EEC): Commission directive 92/69/EEC of 31 Jul. 1992, Methods for the determination of ecotoxicity, C.3., “Algal Inhibition Test”. Preferably the surfactants of the present invention have a toxicity profile (EC50)>1 and </=10 mg/l; more preferably an EC50>10 and </=100 mg/l; and most preferably an EC50>100 mg/l.
The study procedures and test methods for aquatic toxicity are based on the recommendations of the following guidelines: Organization for Economic Cooperation and Development (OECD): OECD Guidelines for the Testing of Chemicals, “Freshwater Alga and Cyanobacteria, Growth Inhibition Test”, Procedure 201, adopted 23 Mar. 2006; European Economic Community (EEC): Commission directive 92/69/EEC of 31 Jul. 1992, Methods for the determination of ecotoxicity, C.3., “Algal Inhibition Test”.
Data from the aquatic toxicity tests of the isolated and purified C12 monosulfonate (sodium 2-(dodecanyloxy)-3-hydroxypropane-1-sulfonate) and C12 disulfonate (sodium 2-(dodecanyloxy)propane-1,3-disulfonate) from Example 3 is shown in Table 2. […]

Consider `CCCCCCCCCCCCOC(CO)CS(=O)(=O)[O-].[Na+]` (stereo not shown) [C12 monosulfate component, sodium 2-(dodecanyloxy)-3-hydroxypropane-1-sulfonate], for which the EC50 in the test with Daphna magna and in the test with Desmondesmus subspicatus was above 100 µg/mL in each case.

`CCCCCCCCCCCCOC(CS(=O)(=O)[O-])CS(=O)(=O)[O-].[Na+].[Na+]` [C12 disulfonate component, sodium 2-(dodecanyloxy)propane-1,3-disulfonate]: the EC50 in the test on Daphna magna and in the test with Desmondesmus subspicatus was above 100 µg/mL in each case.
